According to patent US11596150B2, “Long chain glycolipids useful to avoid perishing or microbial contamination of materials” (IMD NATURAL SOLUTIONS GMBH, priority 2011, dated 2023):
Converted amounts (≈) assume the structure as drawn. Like-named read-outs stand apart in the source and are kept apart here.

Experiments:
[1] = system: Corynebacterium variabile (DSM20132); experiment: MIC determination in microtiter plates (non-pathogenic microorganisms); type: cell-based; settings: 48 h, read-out: MIC values after 48 h
[2] = system: Propionibacterium acnes (ATCC6919); experiment: MIC after 48 h (Example 9); type: cell-based; settings: Cutibacterium acnes
[3] = system: Pyricularia oryzae (DSM62938); experiment: microbe, parasite or virus in culture; type: cell-based; settings: DSM62938, 48 h, read-out: MIC values after 48 h
[4] = system: Staphylococcus aureus (ATCC 6538P); experiment: microbe, parasite or virus in culture; type: cell-based; settings: ATCC6538P, Mueller-Hinton Broth, 1% DMSO, 20 hours at 36° C., read-out: MIC S. aureus
[5] = system: Aspergillus fumigatus (ATCC 1028); experiment: microbe, parasite or virus in culture; type: cell-based
Candida albicans = experiment: MIC / growth inhibition after 48 h (Example 9); settings: ATCC10231, 48 h, read-out: MIC values after 48 h
[6] = system: Lactobacillus plantarum (DSM 12028); experiment: MIC determination in microtiter plates (non-pathogenic microorganisms); type: cell-based; settings: Lactiplantibacillus plantarum; Lactobacillus plantarum (DSM12028); 48 h; read-out: MIC values after 48 h
[7] = system: Zygosaccharomyces bailii (DSM70492); experiment: as above; type: cell-based; settings: 48 h, read-out: MIC values after 48 h
[8] = system: Zygosaccharomyces florentinus (DSM70506); experiment: as above; type: cell-based; settings: Zygotorulaspora florentina, 48 h, read-out: MIC values after 48 h
[9] = system: Saccharomyces cerevisiae (HT10); experiment: as above; type: cell-based; settings: 48 h, read-out: MIC values after 48 h
[10] = system: Dekkera bruxellensis (DSM70726); experiment: as above; type: cell-based; settings: Brettanomyces bruxellensis, 48 h, read-out: MIC values after 48 h
[11] = system: Mucor plumbeus (MUCL49355); experiment: as above; type: cell-based
[12] = system: Clostridium perfringens (ATCC 13124); experiment: microbe, parasite or virus in culture; type: cell-based; settings: ATCC13124, 48 h
[13] = system: Aspergillus niger (ATCC 16404); experiment: MIC determination in microtiter plates (non-pathogenic microorganisms); type: cell-based; settings: Aspergillus niger (ATCC16404); 48 h; read-out: MIC values after 48 h
[14] = system: Talaromyces luteus (CBS348.51); experiment: MIC after 48 h (Example 9); type: cell-based; settings: Ascospirella lutea
[15] = system: Zygosaccharomyces bisporus (DSM70415); experiment: MIC determination in microtiter plates (non-pathogenic microorganisms); type: cell-based; settings: 48 h, read-out: MIC values after 48 h
[16] = system: Zygosaccharomyces rouxii (NCYC381); experiment: as above; type: cell-based; settings: 48 h, read-out: MIC values after 48 h
[17] = system: Byssochlamys fulva (DSM62097); experiment: as above; type: cell-based; settings: Paecilomyces fulvus, 48 h, read-out: MIC values after 48 h
[18] = system: Bacillus subtilis (ATCC6633); experiment: as above; type: cell-based; settings: 48 h, read-out: MIC values after 48 h
[19] = system: Dekkera naardenensis (DSM70743); experiment: as above; type: cell-based; settings: Brettanomyces naardenensis, 48 h, read-out: MIC values after 48 h
Bacillus cereus = experiment: MIC / growth inhibition after 48 h (Example 9); settings: ATCC11778, 48 h, read-out: MIC values after 48 h
Clostridium sporogenes = experiment: MIC / growth inhibition after 48 h (Example 9); settings: ATCC3584, 48 h, read-out: MIC values after 48 h
[20] = system: Enterococcus faecalis (ATCC19433); experiment: MIC after 48 h (Example 9); settings: ATCC19433, 48 h, read-out: MIC values after 48 h
[21] = system: Listeria welshimeri (DSM15452); experiment: MIC determination in microtiter plates (non-pathogenic microorganisms); type: cell-based; settings: 48 h, read-out: MIC values after 48 h
Excerpt: Various nonpathogenic bacteria, yeasts, and filamentous fungi were obtained from public culture collections and maintained as recommended in the catalogues and protocols of the respective institutions. Saccharomyces cerevisiae strain HT10 and Mucor plumbeus were originally taken from the culture collection of InterMed Discovery GmbH but deposited with MUCL as reference strains for antimicrobial susceptibility testing. These strains were maintained under liquid nitrogen and, prior to the screening, on YMG agar. Prior to the screening the yeast and bacterial strains were grown over night on SDB (medium 1), except for Bacillus subtilis, which was grown on YMG agar (medium 2) for 1 week to prepare spore suspensions. Likewise, the filamentous fungi were pre-incubated on YMG agar for 2-3 weeks to create inoculum for spore suspensions. […] For all experiments, freshly prepared spore suspensions were used. The initial concentrations for the bioassays were adjusted to 1×10^5 CFU (i.e. cells or spores, respectively) per ml. […] To adjust the initial titer prior to the bioassays, the CFU per ml was determined under the microscope using a counting chamber type “Brand Neubauer improved”; BRAND GmbH & Co KG, Wertheim, Germany). This microscopic control also served as means for assessment of the viability of the cells. […]

[22] = system: Listeria monocytogenes (ATCC19111); experiment: MIC after 48 h (Example 9); settings: ATCC19111, 48 h, read-out: MIC values after 48 h
[23] = Aspergillus fumigatus (ATCC1028), 48 h, read-out: MIC values after 48 h
[24] = Aspergillus fumigatus, ATCC1028, 72 h, Potato Dextrose Broth, 1% DMSO, 3 days at 28° C., read-out: MIC A. fumigatus
[25] = M. plumbeus (MUCL49355), SDB medium, day not given (Table 19)
[26] = M. plumbeus (MUCL49355), SDB medium, day not printed (first line of Table 19)
[27] = Mucor plumbeus (MUCL49355), 48 h, read-out: MIC values after 48 h
[28] = read-out: MIC values after 48 h
[29] = M. plumbeus (MUCL49355), SDB medium, day 2
[30] = M. plumbeus (MUCL49355), SDB medium, day 7
[31] = M. plumbeus (MUCL49355), SDB medium, day 16
[32] = M. plumbeus (MUCL49355), SDB medium, day 28

Compound	MIC [1]	MIC [3]	MIC [6]	MIC [7]	MIC [8]	MIC [9]	MIC [10]	MIC [11, 25]	MIC [11, 26]	MIC [11, 27]	MIC [13]	MIC [14]	MIC [15]	MIC [16]	MIC [17]	MIC [18]	MIC [19]	other results
CCCCC(CCCC(O)C(O)CCCCCCCCCCCCCCC(O)C(=O)O)OC1OCC(O)C(O)C1OC1OCC(OC(C)=O)C(O)C1OC1OC(COC(=O)CC(C)C)C(O)C(O)C1O (centres unmarked) [[1], 2,17,18-trihydroxy-hexacosanoic acid 22-O-[6-isovaleroyl-hexapyranosyl-(1→2)-5-acetyl-pentapyranosyl-(1→2)-penta-pyranosid]-]	1.6 µg/mL (≈ 1.58 µM)	6 µg/mL (≈ 5.92 µM)	25 µg/mL (≈ 24.7 µM)	6.3 µg/mL (≈ 6.22 µM)	6.3 µg/mL (≈ 6.22 µM)	6.3 µg/mL (≈ 6.22 µM)	6.3 µg/mL (≈ 6.22 µM)	50	25	6.3 µg/mL (≈ 6.22 µM)	3.1 µg/mL (≈ 3.06 µM)	12.5 µg/mL (≈ 12.3 µM)	12.5 µg/mL (≈ 12.3 µM)	6.3 µg/mL (≈ 6.22 µM)	3.1 µg/mL (≈ 3.06 µM)	3.1 µg/mL (≈ 3.06 µM)	6.3 µg/mL (≈ 6.22 µM)	MIC [2]: 100 µg/mL (≈ 98.7 µM); MIC [4]: 200 µg/mL (≈ 197 µM); MIC [5, 23]: 20 µg/mL (≈ 19.7 µM); MIC [5, 24]: 20 µg/mL (≈ 19.7 µM); MIC (Candida albicans): 30 µg/mL (≈ 29.6 µM); MIC ([12]; read-out: MIC C. perfringens): 60 µg/mL (≈ 59.2 µM); MIC [12, 28]: 60 µg/mL (≈ 59.2 µM)
CCCCC(CCCC(O)C(O)CCCCCCCCCCCCCCC(O)C(=O)O)OC1OCC(O)C(O)C1OC1OCC(O)C(O)C1OC1OC(COC(C)=O)C(OC(C)=O)C(O)C1O (centres unmarked) [[6], Glykenin IIIB or Glykenin IIIC]								25	25									
CCCCCCC(CCCC(O)CCCCCCCCCCCCCC(O)C(=O)O)OC1OCC(O)C(O)C1OC1OCC(OC(C)=O)C(O)C1OC1OC(COC(C)=O)C(O)C(O)C1O (centres unmarked) [[10], Antibiotic F 19848A]								50	12.5									
CCCCC(CCCC(O)C(O)CCCCCCCCCCCCCCC(O)C(=O)O)OC1OCC(O)C(O)C1OC1OCC(O)C(O)C1OC1OC(COC(=O)CC(C)C)C(O)C(O)C1O (centres unmarked) [[12]]	< 0.8 µg/mL	25 µg/mL (≈ 25.7 µM)	25 µg/mL (≈ 25.7 µM)	6.3 µg/mL (≈ 6.49 µM)	6.3 µg/mL (≈ 6.49 µM)	6.3 µg/mL (≈ 6.49 µM)	6.3 µg/mL (≈ 6.49 µM)	100	50	6.3 µg/mL (≈ 6.49 µM)	6.3 µg/mL (≈ 6.49 µM)	25 µg/mL (≈ 25.7 µM)	12.5 µg/mL (≈ 12.9 µM)	6.3 µg/mL (≈ 6.49 µM)	6.3 µg/mL (≈ 6.49 µM)	1.6 µg/mL (≈ 1.65 µM)	6.3 µg/mL (≈ 6.49 µM)	MIC (Bacillus cereus): 12.5 µg/mL (≈ 12.9 µM); MIC [4]: 200 µg/mL (≈ 206 µM); MIC [5, 23]: 20 µg/mL (≈ 20.6 µM); MIC [5, 24]: 20 µg/mL (≈ 20.6 µM); MIC (Candida albicans): 25 µg/mL (≈ 25.7 µM); MIC (Clostridium sporogenes): 50 µg/mL (≈ 51.5 µM); MIC [20]: 50 µg/mL (≈ 51.5 µM); MIC ([12]; read-out: MIC C. perfringens): 60 µg/mL (≈ 61.8 µM); MIC [12, 28]: 60 µg/mL (≈ 61.8 µM); MIC [21]: 25 µg/mL (≈ 25.7 µM); MIC [22]: 50 µg/mL (≈ 51.5 µM)
CCCCC(CCCC(O)C(O)CCCCCCCCCCCCCCC(O)C(=O)O)OC1OCC(O)C(O)C1OC1OCC(O)C(O)C1OC1OC(COC(=O)CC(C)C)C(OC(C)=O)C(O)C1O (centres unmarked) [[13]]	1.6 µg/mL (≈ 1.58 µM)	6 µg/mL (≈ 5.92 µM)	25 µg/mL (≈ 24.7 µM)	6.3 µg/mL (≈ 6.22 µM)	12.5 µg/mL (≈ 12.3 µM)	12.5 µg/mL (≈ 12.3 µM)	6.3 µg/mL (≈ 6.22 µM)	25	12.5	12.5 µg/mL (≈ 12.3 µM)	12.5 µg/mL (≈ 12.3 µM)	25 µg/mL (≈ 24.7 µM)	25 µg/mL (≈ 24.7 µM)	12.5 µg/mL (≈ 12.3 µM)	3.1 µg/mL (≈ 3.06 µM)	3.1 µg/mL (≈ 3.06 µM)	12.5 µg/mL (≈ 12.3 µM)	
CCCCC(CCCC(O)C(O)CCCCCCCCCCCCCCC(O)C(=O)O)OC1OCC(O)C(O)C1OC1OCC(OC(C)=O)C(O)C1OC1OC(CO)C(O)C(O)C1O (centres unmarked) [[14]]	1.6 µg/mL (≈ 1.72 µM)	25 µg/mL (≈ 26.9 µM)	25 µg/mL (≈ 26.9 µM)	25 µg/mL (≈ 26.9 µM)	50 µg/mL (≈ 53.8 µM)	50 µg/mL (≈ 53.8 µM)	50 µg/mL (≈ 53.8 µM)	>100	50	50 µg/mL (≈ 53.8 µM)	50 µg/mL (≈ 53.8 µM)	50 µg/mL (≈ 53.8 µM)	50 µg/mL (≈ 53.8 µM)	25 µg/mL (≈ 26.9 µM)		1.6 µg/mL (≈ 1.72 µM)	25 µg/mL (≈ 26.9 µM)	
CCCCC(CCCC(O)C(O)CCCCCCCCCCCCCCC(O)C(=O)O)OC1OCC(O)C(O)C1OC1OCC(O)C(O)C1OC1OC(CO)C(O)C(O)C1O (centres unmarked) [[16], Glykenin DGC or Glykenin DGB]	1.6 µg/mL (≈ 1.8 µM)	25 µg/mL (≈ 28.2 µM)	50 µg/mL (≈ 56.4 µM)	25 µg/mL (≈ 28.2 µM)	> 100 µg/mL	> 100 µg/mL	> 100 µg/mL	>100	>100	> 100 µg/mL	25 µg/mL (≈ 28.2 µM)	50 µg/mL (≈ 56.4 µM)	> 100 µg/mL	100 µg/mL (≈ 113 µM)	6.3 µg/mL (≈ 7.1 µM)	3.1 µg/mL (≈ 3.49 µM)	50 µg/mL (≈ 56.4 µM)	
CCCCCCC(CCCC(O)CCCCCCCCCCCCCC(O)C(=O)O)OC1OCC(O)C(O)C1OC1OCC(OC(C)=O)C(O)C1OC1OC(COC(=O)CC(C)C)C(O)C(O)C1O (centres unmarked) [[18]]								>100	25									
O=C(O)c1ccccc1 [benzoic acid, reference compound]																		MIC [11, 29]: 1000; MIC [11, 30]: 1000; MIC [11, 31]: >1000; MIC [11, 32]: >1000
C/C=C/C=C/C(=O)O [sorbic acid, reference compound]																		MIC [11, 29]: 250; MIC [11, 30]: 500; MIC [11, 31]: 1000; MIC [11, 32]: 1000
